From US9782427B2, “Methods for treating cancer using TOR kinase inhibitor combination therapy” (Signal Pharmaceuticals, LLC, priority 2013, dated 2017)

What was measured:
HepG2 cells = assay: Anchorage independent growth (colony formation) assay; format: cell-based, Human; settings: single agent; for colony formation: 8 days
Method: (§1) The effect of Compound 1 on anchorage-independent growth (AIG) was assessed by colony formation assay in 2 Human Hepatocellular Carcinoma (“HHC”) cell lines, HepG2 and SK-Hep-1.
(§2) Cell Lines/Cells. Human cell lines HepG2 and SK-Hep-1 cells were obtained from American Type Culture Collection (ATCC; Manassas, Va.). Cells were cultured in DMEM (Dulbecco's Modified Eagle's Medium) (Mediatech; Mannasas, Va.) with 10% Premium FBS (Lonza, Walkersville, Md.).
(§3) (1) Single Agent Colony Formation Assay. Nobel Agar (1.2 grams; BD; Franklin Lakes, N.J.) was placed in a 100-mL sterile bottle. Sterile water (100 mL) was added and microwaved until the agar boiled. Equal volumes of agar and 2×RPMI medium (ECE Scientific; Doylestown, Pa.) were mixed and 300 μL were transferred to each well in a 24-well flat bottom plate (BD; Franklin Lakes, N.J.). Plates were kept at 4° C. until the agar solidified. Cultures of HepG2 and SK-Hep-1 cells were harvested and resuspended in culture medium at 3.6×10^3 cells/mL. Equal volumes of agar, 2×RPMI, and cell suspension (1:1:1) were mixed in a sterile tube and 500 μL/well were immediately transferred into the 24-well plates. Plates were kept at 4° C. until the agar solidified. Culture medium (500 μL) containing compound or DMSO was added to each well (final DMSO concentration for each treatment was 0.2%). Compound 1 was tested at final concentrations of 0.1, 0.3, 1, 3, 10 and 30 μM. 5-AZA was tested at final concentrations of 1, 3 and 10 μM. Cell treatments were set up in triplicate. Cells were incubated for 8-10 days at 37° C. in a 5% CO2 atmosphere. Photographs (2× magnification) of each well were taken using a Nikon DXM1200 Digital Camera and Nikon ACT1 software and saved as a TIFF file. ImageQuant TL (GE Healthcare; Piscataway, N.J.) Colony Count Software was used to count colonies. (2) Combination Study Colony Formation Assay. Nobel Agar (1.2 grams; BD; Franklin Lakes, N.J.) was placed in a 100-mL sterile bottle. Sterile water (100 mL) was added and microwaved until the agar boiled. Equal volumes of agar and 2×RPMI medium (ECE Scientific; Doylestown, Pa.) were mixed and 300 μL were transferred to each well in a 24-well flat bottom plate (BD; Franklin Lakes, N.J.). Plates were kept at 4° C. until the agar solidified. Cultures of HepG2 and SK-Hep-1 cells were harvested and resuspended in culture medium at 3.6×10^3 cells/mL. Equal volumes of agar, 2×RPMI, and cell suspension (1:1:1) were mixed in a sterile tube and 500 μL/well were immediately transferred into the 24-well plates. Plates were kept at 4° C. until the agar solidified. Culture medium (500 μL) containing compound or DMSO was added to each well (final DMSO concentration for each treatment was 0.2%). Cells were treated with single treatment as follows: Compound 1 was tested at final concentrations of 0.1 and 0.3 μM. 5-AZA was tested at 3 μM. Combinations of Compound 1 at 0.1 and 0.3 μM were tested with 3 μM 5-AZA. Cell treatments were set up in triplicate. Cells were incubated for 8-10 days at 37° C. in a 5% CO2 atmosphere. Photographs (2× magnification) of each well were taken using a Nikon DXM1200 Digital Camera and Nikon ACT1 software and saved as a TIFF file. ImageQuant TL (GE Healthcare; Piscataway, N.J.) Colony Count Software was used to count colonies.
(§4) Significance versus the DMSO control was calculated using One Way ANOVA and Dunnett's Post test or unpaired t tests using GraphPad Prism v5.01. To evaluate the combinatory effect, data from the three independent experiments were analyzed by comparing the combinatory response against the theoretical additive response of the two agents.

SK-Hep-1 cells = assay: as above; format: cell-based, Human; settings: single agent
Method: as §1, §2, §3, §4

Caov-3 = assay: Cell viability (CellTiter-Glo) and combination index, ovarian cell line; format: cell-based; settings: combination with VIDAZA, 3 days, CalcuSyn, Chou-Talalay
Method: (§5) Cell viability was assessed using the Cell Titer-Glo® Luminescent Cell Viability Assay, Catalog Number G7570 (Promega Corporation, Madison, Wis.). The assay is a homogenous method of determining the number of viable cells in culture based on quantitation of the adenosine triphosphate (ATP) present, an indicator of metabolically active cells. The homogenous assay procedure involves adding the single reagent (CellTiter-Glo Reagent) directly to cells cultured in serum-supplemented medium. Cells were plated into a 96-well flat bottom plate (Costar Catalog Number 33595) at densities that were previously optimized for each cell line. The cells were incubated overnight in 5% CO2 at 37° C. The following day, compound dilutions were prepared and all concentrations were assayed in triplicate. The cells were incubated with a TOR kinase inhibitor or a TOR kinase inhibitor and a second active agent, in 5% CO2 at 37° C. for 3 days. After a 3-day incubation period, 100 μL, of CellTiter-Glo reagent was added to each well for 2 min with shaking and further incubated for 10 min (no shaking) at room temperature to stabilize the signal. The luminescence was measured on the VICTOR X2 multilabel plate reader. The percent growth inhibition was calculated using the DMSO control in the same plate (no compound) response as 100% cell growth. For single compound treatments (TORKi and second active agents separately), the average values from triplicates were plotted to obtain IC50 values using software XLfit from IDBS. The formula used for determining IC50 in XLfit was model number 205, which utilizes a 4 Parameter Logistic Model or Sigmoidal Dose-Response Model to calculate the IC50 values.
(§6) The cell viability assay was first performed with the TOR kinase inhibitor and the individual second active agents, to determine the dose range for subsequent combination studies. […] The TOR kinase inhibitor and the second active agent were each added to one well containing a final concentration of 0.2% DMSO (in triplicate). In the same plate in triplicate, the cells were treated with the TOR kinase inhibitor and each second active agent either simultaneously or sequentially (containing 0.2% DMSO). The number of cells affected by compound treatment was normalized to the DMSO control (100% viability) and the data was imported into the CalcuSyn software (V2.1, Biosoft). Synergism was quantitated by the combination index (CI) using CalcuSyn according to Chou-Talalay's CI method with mathematical modeling and simulations. […] ED50 is the median effect dose at which a 50% growth inhibition is achieved.

Ovcar-3 = assay: as above; format: cell-based; settings: combination with VIDAZA, 3 days, CalcuSyn, Chou-Talalay
Method: as §5, §6

Ovcar-8 = assay: as above; format: cell-based; settings: combination with VIDAZA, 3 days, CalcuSyn, Chou-Talalay
Method: as §5, §6

Ovcar-5 = assay: as above; format: cell-based; settings: combination with VIDAZA, 3 days, CalcuSyn, Chou-Talalay
Method: as §5, §6

Ovcar-4 = assay: as above; format: cell-based; settings: combination with VIDAZA, 3 days, CalcuSyn, Chou-Talalay
Method: as §5, §6

[1] = system: seventeen breast cancer cell line panel; assay: Anti-proliferation assay (ATPLite), breast cancer cell line panel; format: cell-based; settings: cell lines where inhibition levels greater than fifty percent were reached; 72 h; read-out: median GI50
Method: Cells were thawed from a liquid nitrogen preserved state. Once cells expanded and divided at their expected doubling times, screening began.
Cells were equilibrated in assay plates via centrifugation and placed in incubators attached to the Dosing Modules at 37° C. for twenty-four hours before treatment. […] These T zero (T0) plates were read using ultra-sensitive luminescence on Envision Plate Readers. Treated assay plates were incubated with compound (single compound or combination) for seventy-two hours. After seventy-two hours, plates were developed for endpoint analysis using ATPLite. All data points were collected via automated processes; quality controlled; and analyzed. Assay plates were accepted if they passed the following quality control standards: relative luciferase values were consistent throughout the entire experiment, Z-factor scores were greater than 0.6, untreated/vehicle controls behaved consistently on the plate. The calculation for synergy score is provided below.
Growth Inhibition (GI) was used as a measure of cell viability. The cell viability of vehicle was measured at the time of dosing (T0) and after seventy-two hours (T72). A GI reading of 0% represents no growth inhibition—cells treated with compound and T72 vehicle signals are matched. […] GI was calculated by applying the following test and equation: If T<V0:100*[1−(T−V0)/V0] […]

[2] = system: subjects with higher-risk MDS; settings: Phase III study, administered subcutaneously; cited from earlier work
[3] = concentrations of 0.1 to 100 μM

For `CO[C@H]1CC[C@H](N2C(=O)CNc3ncc(-c4ccc(C(C)(C)O)nc4)nc32)CC1` [Compound 1, 7-(6-(2-hydroxypropan-2-yl)pyridin-3-yl)-1-((1r,4r)-4-methoxycyclohexyl)-3,4-dihydropyrazino-[2,3-b]pyrazin-2(1H)-one], the colony formation (HepG2 cells; 0.1 μM) was 74 % of control, the colony formation (HepG2 cells; 0.3 μM) was 57 % of control and the colony formation (HepG2 cells; 1 μM) was 33 % of control. For the same molecule, the colony formation (HepG2 cells; 3 μM) was 24 % of control, the colony formation (HepG2 cells; 10 μM) was 16 % of control and the colony formation (HepG2 cells; 30 μM) was 11 % of control. For the same molecule, the anti-colony forming activity (HepG2 cells; [3]) was “dose-dependent and significant anti-colony forming activity”, the “inhibition of colony formation” value (SK-Hep-1 cells; 3 μM and higher) was 100% and the colony formation (SK-Hep-1 cells; 0.3-30 μM, 8-10 days) was 0-45 % of control. The anti-colony forming activity (SK-Hep-1 cells; [3]) was “dose-dependent and significant anti-colony forming activity”, the “Combination index (CI) at the ED50” value (Caov-3) was 1.08 and the “Combination index (CI) at the ED50” value (Ovcar-3) was 1.23. The “Combination index (CI) at the ED50” value (Ovcar-8) was 0.99, the “Combination index (CI) at the ED50” value (Ovcar-5) was 0.92 and the “Combination index (CI) at the ED50” value (Ovcar-4) was 0.99.

`CCN1C(=O)CNc2ncc(-c3ccc(-c4nc[nH]n4)nc3C)nc21` [Compound 2, 1-ethyl-7-(2-methyl-6-(1H-1,2,4-triazol-3-yl)pyridin-3-yl)-3,4-dihydropyrazino[2,3-b]pyrazin-2(1H)-one] gave a GI50 [1] of 140 nM.

In the case of `Cc1nc(-c2nnc[nH]2)ccc1-c1cnc2c(n1)N(CCC1CCOCC1)C(=O)CN2` [Compound 3, 7-(2-methyl-6-(4H-1,2,4-triazol-3-yl)pyridin-3-yl)-1-(2-(tetrahydro-2H-pyran-4-yl)ethyl)-3,4-dihydropyrazino[2,3-b]pyrazin-2(1H)-one], the “Combination index (CI) at the ED50” value (Caov-3) is reported as 0.92, the “Combination index (CI) at the ED50” value (Ovcar-3) is reported as 0.55 and the “Combination index (CI) at the ED50” value (Ovcar-8) is reported as 0.81. The “Combination index (CI) at the ED50” value (Ovcar-5) was 0.76 and the “Combination index (CI) at the ED50” value (Ovcar-4) was 0.61.

In the case of `Nc1ncn([C@@H]2O[C@H](CO)[C@@H](O)[C@H]2O)c(=O)n1` [Compound 5-AZA, 4-amino-1-β-D-ribofuranosyl-1,3,5-triazin-2(1H)-one, reference compound], the colony formation (HepG2 cells; at 1, 3 and 10 μM) is given as 43-76 % of control, the colony formation (SK-Hep-1 cells; 10 μM, 8 days) is given as 38 % of control and the “survival and time to AML transformation or death” value [2] is given as “significantly prolonged survival and time to AML transformation or death”.
